Data on one molecule can be found in US10570172B1 (priority 2008, dated 2020).

The target in the test is PrP (Mesocricetus auratus, UniProt P04273). Format: binding, hamster.
Sequence of PrP (P04273 23-231 limits assumed): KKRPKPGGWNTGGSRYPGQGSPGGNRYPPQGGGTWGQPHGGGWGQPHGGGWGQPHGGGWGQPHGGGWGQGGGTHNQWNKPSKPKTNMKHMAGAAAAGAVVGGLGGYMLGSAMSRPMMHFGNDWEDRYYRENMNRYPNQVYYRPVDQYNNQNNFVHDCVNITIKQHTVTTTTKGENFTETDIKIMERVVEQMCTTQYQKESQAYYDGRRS

Consider `Nc1c(/N=N/c2ccc(-c3ccc(/N=N/c4cc(S(=O)(=O)O)c5ccccc5c4N)cc3)cc2)cc(S(=O)(=O)O)c2ccccc12` [Congo red], for which the “inhibition of binding of PrP to RADA” value (Congo red pre-incubated with PrP before RADA exposure) was “dose-dependent inhibition”. For the same molecule, the “Congo red concentration with significant inhibition of PrP binding” value (Congo red pre-incubation with PrP, Mann-Whitney) amounted to 1 µM. The “inhibition of binding of PrP” value (RADA pre-incubated with Congo red before or after plate binding) was “ineffective”.
